From patent US20240023546A1, “TRIGEMINAL CUE FOR WILDLIFE REPELLENTS” (The United States of America, as Represented by the …, priority 2022, published 2024)

Test system: cottontail rabbits
Assay: no-choice feeding experiment, repellency of cottontail rabbits from treated whole oats
Assay type: in vivo
Description: As used herein, the term “repellency” means the percent decrease in consumption (or occupancy) of a treated substrate relative to an untreated substrate. […] These values can be used to define a range, such as 50% to 75%, or 75% to 85%, or 25% to 50% decrease in consumption (or occupancy) of a treated substrate relative to an untreated substrate.
We conducted one no-choice feeding experiment for each unique combination of the trigeminal nerve irritant (methyl anthranilate) and the animal repellent (anthraquinone). For each feeding experiment, we used 24-30 cottontail rabbits to evaluate the efficacy of our repellent formulations. For each experiment, we offered untreated food for up to three days of the pretreatment and repellent-treated food during the 1-day test. For each experiment, our three test treatments (n=8−10 rabbits per treatment group) included food treated with (1) the methyl anthranilate alone, (2) the anthraquinone alone and (3) the combination of the methyl anthranilate and the anthraquinone.

| SMILES | % Repellency (rabbit, in vivo) [%] | % Repellency (whole oats treated with 5000 ppm MA alone, 1-day no-choice test) [%] | % Repellency (whole oats treated with 5000 ppm MA alone, 1-day no-choice test, listed as MA) [%] | % Repellency (whole oats treated with 10,000 ppm MA alone, 1-day no-choice test) [%] |
| --- | --- | --- | --- | --- |
| O=C1c2ccccc2C(=O)c2ccccc21 [anthraquinone, 9,10-anthraquinone] | 36 | – | – | – |
| COC(=O)c1ccccc1N [methyl anthranilate] | – | 6 | 6 | 62 |
